Measurements: BigSolDB 2.1

O=C(N[C@H](C(=O)O)c1ccccc1)OCc1ccccc1
solubility (mole fraction)
Conditions	283.15 K	288.15 K	293.15 K	298.15 K	303.15 K	313.15 K	323.15 K
in 2-butanone	0.0446	–	0.0596	–	0.0762	0.0957	0.111
in acetone	0.0605	–	0.0786	–	0.1	0.129	0.159
in acetonitrile	0.0067	–	0.00966	–	0.0143	0.0253	0.053
in dichloromethane	0.00624	0.00703	0.00874	0.0112	0.0149	–	–
in ethanol	0.0235	–	0.0354	–	0.0581	0.0922	0.141
in ethyl acetate	0.0209	–	0.0274	–	0.0371	0.0549	0.073
in isopropanol	0.0107	–	0.0175	–	0.0328	0.0604	0.105
in methanol	0.0325	–	0.0479	–	0.0794	0.111	0.146
in methyl acetate	0.028	–	0.0399	–	0.0541	0.0739	0.0918
in n-propanol	0.0141	–	0.0231	–	0.039	0.068	0.11
in water	1.1e-05	–	2.4e-05	–	4.5e-05	5.7e-05	6.9e-05
